Measurements as given in PMC9555642 (PLoS ONE, 2022).

Target: T1, HDAC10 (Homo sapiens, UniProt Q969S8)
T1 construct: purchased Eurofins Pharma Discovery Services 2662
T1 sequence (Q969S8 1-669): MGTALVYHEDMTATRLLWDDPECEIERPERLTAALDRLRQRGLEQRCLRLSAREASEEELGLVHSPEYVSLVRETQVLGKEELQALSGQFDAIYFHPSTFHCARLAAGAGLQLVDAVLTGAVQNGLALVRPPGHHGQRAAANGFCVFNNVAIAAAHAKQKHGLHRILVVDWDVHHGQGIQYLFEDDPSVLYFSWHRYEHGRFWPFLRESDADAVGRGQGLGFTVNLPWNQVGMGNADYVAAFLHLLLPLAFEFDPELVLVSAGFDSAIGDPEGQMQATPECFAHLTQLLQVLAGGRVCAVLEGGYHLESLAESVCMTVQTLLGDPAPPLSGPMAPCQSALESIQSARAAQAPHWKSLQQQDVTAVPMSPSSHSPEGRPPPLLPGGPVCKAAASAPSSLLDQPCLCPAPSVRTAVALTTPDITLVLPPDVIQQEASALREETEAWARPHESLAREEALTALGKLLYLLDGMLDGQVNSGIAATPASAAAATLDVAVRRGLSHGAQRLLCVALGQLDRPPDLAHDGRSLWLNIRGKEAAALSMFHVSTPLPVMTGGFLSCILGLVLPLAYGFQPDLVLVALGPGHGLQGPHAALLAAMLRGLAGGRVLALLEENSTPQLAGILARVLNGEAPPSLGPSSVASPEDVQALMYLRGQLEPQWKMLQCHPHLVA
Assay: HDAC enzymatic activity (Eurofins)
Type: biochemical

O=C(CCCCCCNC(=O)c1cnc(N(c2ccccc2)c2ccccc2)nc1)NO [Ricolinostat]
IC50: 901 nM
